Test results reported in USRE48335E1, “Polymyxin derivatives as antimicrobial compounds” (priority 2014, dated 2020).
≈ marks a conversion by molar mass, not a printed value. Positions of bridges follow the written chain, without caps; N, C: chain ends. Non-standard residues stand in square brackets, D forms with d. Residues, ends and D or L forms follow the SMILES beside them. *: point of attachment. Benzoyl(3-CF3) = O=C(c1cccc(C(F)(F)F)c1)*; dNle = CCCC[C@@H](N)C(=O)O; Octanoyl = CCCCCCCC(=O)*; Dab = NCC[C@H](N)C(=O)O; Abu = CC[C@H](N)C(=O)O; Dap = NC[C@H](N)C(=O)O

Tests used:
[1] = system: K. pneumoniae FADDI-KP032; assay: In vivo efficacy in mouse blood infection model (neutropenic Swiss mice); details: compound, free base 4 mg/kg intravenously 2 h after inoculation, blood at 4 h
Outline: (§1)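 Activity expressed as Δlog10 CFU/mL blood, treated minus saline control, 4 h after a single 4 mg/kg (free base) i.v. dose given 2 h post-infection. Bloodstream infection from i.v. early log-phase inoculum in Swiss mice made neutropenic by i.p. cyclophosphamide on days −4 (150 mg/kg) and −1 (100 mg/kg).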

A. baumannii ATCC 19606 = assay: as above; details: compound, free base 4 mg/kg intravenously 2 h after inoculation, blood at 4 h
Outline: as §1

Pseudomonas aeruginosa = system: Pseudomonas aeruginosa
Outline: (§2)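 Using polymyxin B sulphate as comparator control, the trifluoroacetate-salt lipopeptides were assayed in CAMHB by broth microdilution to CLSI M100-S18, and MICs recorded.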

Klebsiella pneumoniae = system: Klebsiella pneumoniae
Outline: as §2

Enterobacter cloacae = system: Enterobacter cloacae
Outline: as §2

Acinetobacter baumannii = system: Acinetobacter baumannii
Outline: as §2

P. aeruginosa ATCC 27853 = assay: In vivo efficacy in mouse blood infection model (neutropenic Swiss mice); details: compound, free base 4 mg/kg intravenously 2 h after inoculation, blood at 4 h
Outline: as §1

SMILES | Δ log (Treated-Control at 4 h) [1] [log10 CFU/mL] | Δ log (Treated-Control at 4 h) (A. baumannii ATCC 19606) [log10 CFU/mL] | MIC (Pseudomonas aeruginosa) [mg/L] | Minimum inhibitory concentration, Pa ATCC 27853 (Pseudomonas aeruginosa) [mg/L] | Minimum inhibitory concentration, Pa FADDI-PA022 (Pseudomonas aeruginosa) [mg/L] | Minimum inhibitory concentration, Pa FADDI-PA025 (Pseudomonas aeruginosa) [mg/L] | MIC (Klebsiella pneumoniae) [mg/L] | Minimum inhibitory concentration, Ec FADDI-EC001 (Enterobacter cloacae) [mg/L] | Minimum inhibitory concentration, Ec FADDI-EC003 (Enterobacter cloacae) [mg/L] | Minimum inhibitory concentration, Ec FADDI-EC006 (Enterobacter cloacae) [mg/L] | MIC (Acinetobacter baumannii) [mg/L] | Minimum inhibitory concentration, Ab A ATCC 17978 (Acinetobacter baumannii) [mg/L] | Minimum inhibitory concentration, Ab ATCC 19606 (Acinetobacter baumannii) [mg/L] | Minimum inhibitory concentration, Ab FADDI-AB034 (Acinetobacter baumannii) [mg/L] | Δ log (Treated-Control at 4 h) (P. aeruginosa ATCC 27853) [log10 CFU/mL]
CCCCCCCC(=O)N[C@@H](CCN)C(=O)N[C@H](C(=O)N[C@@H](CCN)C(=O)N[C@H]1CCNC(=O)[C@H]([C@@H](C)O)NC(=O)[C@H](CCN)NC(=O)[C@H](CCN)NC(=O)[C@H](CO)NC(=O)[C@@H](CC(C)C)NC(=O)[C@H](CCN)NC1=O)[C@@H](C)O [Compound 25] (Octanoyl-[Dab]T[Dab][Dab][Dab][dL]S[Dab][Dab]T; lactam 4-C) | −2.65 | 0.27 | >32 | >32 | 0.5 (≈ 0.443 µM) | >32 | 0.25 (≈ 0.221 µM) | <0.125 | 0.25 (≈ 0.221 µM) | 0.5 (≈ 0.443 µM) | 8 (≈ 7.08 µM) | 4 (≈ 3.54 µM) | 8 (≈ 7.08 µM) | 4 (≈ 3.54 µM) | –
CCCCCCCC(=O)N[C@@H](CCN)C(=O)N[C@H](C(=O)N[C@@H](CCN)C(=O)N[C@H]1CCNC(=O)[C@H]([C@@H](C)O)NC(=O)[C@H](CCN)NC(=O)[C@H](CCN)NC(=O)[C@H](C)NC(=O)[C@@H](CC(C)C)NC(=O)[C@H](CCN)NC1=O)[C@@H](C)O [Compound 21] (Octanoyl-[Dab]T[Dab][Dab][Dab][dL]A[Dab][Dab]T; lactam 4-C) | – | −2.43 | 0.5 (≈ 0.449 µM) | 0.5 (≈ 0.449 µM) | 0.5 (≈ 0.449 µM) | >32 | 0.25 (≈ 0.225 µM) | 0.125 (≈ 0.112 µM) | 0.125 (≈ 0.112 µM) | 0.125 (≈ 0.112 µM) | 1 (≈ 0.898 µM) | 2 (≈ 1.8 µM) | 1 (≈ 0.898 µM) | 0.5 (≈ 0.449 µM) | −2.26
CC[C@@H]1NC(=O)[C@@H](Cc2ccccc2)NC(=O)[C@H](CCN)NC(=O)[C@@H](NC(=O)[C@H](CN)NC(=O)[C@@H](NC(=O)[C@H](CCN)NC(=O)c2cccc(C(F)(F)F)c2)[C@@H](C)O)CCNC(=O)[C@H]([C@@H](C)O)NC(=O)[C@H](CCN)NC(=O)[C@H](CCN)NC1=O [Compound 122] ({Benzoyl(3-CF3)}-[Dab]T[Dap][Dab][Dab][dF][Abu][Dab][Dab]T; lactam 4-C) | – | −1.58 | 2 (≈ 1.68 µM) | 2 (≈ 1.68 µM) | 2 (≈ 1.68 µM) | 2 (≈ 1.68 µM) | 0.5 (≈ 0.419 µM) | 0.5 (≈ 0.419 µM) | 0.5 (≈ 0.419 µM) | 0.25 (≈ 0.21 µM) | 0.5 (≈ 0.419 µM) | 0.25 (≈ 0.21 µM) | 0.5 (≈ 0.419 µM) | 0.5 (≈ 0.419 µM) | −3.70
CCCCCCCC(=O)N[C@@H](CCN)C(=O)N[C@H](C(=O)N[C@@H](CO)C(=O)N[C@H]1CCNC(=O)[C@H]([C@@H](C)O)NC(=O)[C@H](CCN)NC(=O)[C@H](CCN)NC(=O)[C@H]([C@@H](C)O)NC(=O)[C@@H](CC(C)C)NC(=O)[C@H](CCN)NC1=O)[C@@H](C)O [Compound 4] (Octanoyl-[Dab]TS[Dab][Dab][dL]T[Dab][Dab]T; lactam 4-C) | −1.84 | – | 4 (≈ 3.54 µM) | 4 (≈ 3.54 µM) | 8 (≈ 7.08 µM) | >32 | 1 (≈ 0.885 µM) | 0.5 (≈ 0.442 µM) | 0.25 (≈ 0.221 µM) | 1 (≈ 0.885 µM) | 8 (≈ 7.08 µM) | 8 (≈ 7.08 µM) | 8 (≈ 7.08 µM) | 4 (≈ 3.54 µM) | –
CC[C@@H]1NC(=O)[C@@H](CC(C)C)NC(=O)[C@H](CCN)NC(=O)[C@@H](NC(=O)[C@H](CN)NC(=O)[C@@H](NC(=O)[C@H](CCN)NC(=O)c2cccc(C(F)(F)F)c2)[C@@H](C)O)CCNC(=O)[C@H]([C@@H](C)O)NC(=O)[C@H](CCN)NC(=O)[C@H](CCN)NC1=O [Compound 106] ({Benzoyl(3-CF3)}-[Dab]T[Dap][Dab][Dab][dL][Abu][Dab][Dab]T; lactam 4-C) | −2.77 | – | 0.5 (≈ 0.431 µM) | 0.5 (≈ 0.431 µM) | 0.5 (≈ 0.431 µM) | 2 (≈ 1.73 µM) | 0.25 (≈ 0.216 µM) | 0.25 (≈ 0.216 µM) | 0.5 (≈ 0.431 µM) | 0.25 (≈ 0.216 µM) | 0.5 (≈ 0.431 µM) | 0.5 (≈ 0.431 µM) | 0.5 (≈ 0.431 µM) | 0.25 (≈ 0.216 µM) | −2.33
CCCC[C@H]1NC(=O)[C@H](CCN)NC(=O)[C@@H](NC(=O)[C@H](CN)NC(=O)[C@@H](NC(=O)[C@H](CCN)NC(=O)c2cccc(C(F)(F)F)c2)[C@@H](C)O)CCNC(=O)[C@H]([C@@H](C)O)NC(=O)[C@H](CCN)NC(=O)[C@H](CCN)NC(=O)[C@H]([C@@H](C)O)NC1=O [Compound 123] ({Benzoyl(3-CF3)}-[Dab]T[Dap][Dab][Dab][dNle]T[Dab][Dab]T; lactam 4-C) | – | −1.53 | 0.5 (≈ 0.425 µM) | 0.5 (≈ 0.425 µM) | 0.5 (≈ 0.425 µM) | 2 (≈ 1.7 µM) | 0.5 (≈ 0.425 µM) | 0.5 (≈ 0.425 µM) | 0.5 (≈ 0.425 µM) | 1 (≈ 0.851 µM) | 1 (≈ 0.851 µM) | 1 (≈ 0.851 µM) | 1 (≈ 0.851 µM) | 0.5 (≈ 0.425 µM) | −2.96
C[C@@H]1NC(=O)[C@@H](Cc2ccccc2)NC(=O)[C@H](CCN)NC(=O)[C@@H](NC(=O)[C@H](CN)NC(=O)[C@@H](NC(=O)[C@H](CCN)NC(=O)c2cccc(C(F)(F)F)c2)[C@@H](C)O)CCNC(=O)[C@H]([C@@H](C)O)NC(=O)[C@H](CCN)NC(=O)[C@H](CCN)NC1=O [Compound 126] ({Benzoyl(3-CF3)}-[Dab]T[Dap][Dab][Dab][dF]A[Dab][Dab]T; lactam 4-C) | −2.68 | – | 0.25 (≈ 0.212 µM) | 0.25 (≈ 0.212 µM) | 1 (≈ 0.848 µM) | 2 (≈ 1.7 µM) | 0.5 (≈ 0.424 µM) | 0.5 (≈ 0.424 µM) | 0.5 (≈ 0.424 µM) | 0.5 (≈ 0.424 µM) | 1 (≈ 0.848 µM) | 1 (≈ 0.848 µM) | 1 (≈ 0.848 µM) | 1 (≈ 0.848 µM) | −3.97
